Measured values reported in patent US20230263803A1, “METHODS OF PREVENTING OR TREATING COVID-19 AND RELATED VIRAL DISEASES OR DISORDERS” (KINARUS AG, priority 2020, published 2023).

Columns and labels:
[1] = tested on: SARS-CoV-2 B1.351 variant; format: cell-based; settings: at the highest concentrations; Vero B4 cells, 72 hrs, qRT-PCR
[2] = tested on: SARS-CoV-2B.1.1.7 variant; format: cell-based; settings: at the highest concentrations; Vero B4 cells, 72 hrs, qRT-PCR

Question: How did the “inhibition of viral shedding, B1.351 variant” value [1] turn out when Cn1c(=O)c(Oc2ccc(F)cc2F)cc2cnc(NC(CCO)CCO)nc21 [Pamapimod, 6-(2,4-Difluorophenoxy)-2-[3-hydroxy-1-(2-hydroxyethyl)-propylamino]-8-methyl-8H-pyrido[2,3-d]pyrimidin-7-one] was run?
Answer: > 90%

Question: And the “inhibition of viral shedding, B.1.1.7 variant” value [2]?
Answer: > 90%
